pEC50, pIC50: −log10 of the molar value. Marks after values point to notes of the source that are not given here.
Columns and labels:
P-gp (MDR1) = assay: Bi-directional permeability in MDR1-MDCK cell line; type: in vitro ADME; settings: dog; MDR1-MDCK cell line, bi-directional; read-out: MDCK asymmetry ratio (efflux ratio)
Excerpt: (§1) The potential drug candidate 10 has excellent physico-chemical properties.

MDR1-MDCK cell line = assay: Bi-directional permeability in MDR1-MDCK cell line; type: in vitro ADME
Excerpt: as §1

[1] = Bi-directional permeability in MDR1-MDCK cell line; type: in vitro ADME; settings: dog; MDR1-MDCK cell line
Excerpt: as §1

HERG channels = HERG channels (Homo sapiens, UniProt Q12809); assay: Binding assay for HERG channels; settings: at 10 μM
Sequence of HERG channels (Q12809 whole entry, canonical isoform): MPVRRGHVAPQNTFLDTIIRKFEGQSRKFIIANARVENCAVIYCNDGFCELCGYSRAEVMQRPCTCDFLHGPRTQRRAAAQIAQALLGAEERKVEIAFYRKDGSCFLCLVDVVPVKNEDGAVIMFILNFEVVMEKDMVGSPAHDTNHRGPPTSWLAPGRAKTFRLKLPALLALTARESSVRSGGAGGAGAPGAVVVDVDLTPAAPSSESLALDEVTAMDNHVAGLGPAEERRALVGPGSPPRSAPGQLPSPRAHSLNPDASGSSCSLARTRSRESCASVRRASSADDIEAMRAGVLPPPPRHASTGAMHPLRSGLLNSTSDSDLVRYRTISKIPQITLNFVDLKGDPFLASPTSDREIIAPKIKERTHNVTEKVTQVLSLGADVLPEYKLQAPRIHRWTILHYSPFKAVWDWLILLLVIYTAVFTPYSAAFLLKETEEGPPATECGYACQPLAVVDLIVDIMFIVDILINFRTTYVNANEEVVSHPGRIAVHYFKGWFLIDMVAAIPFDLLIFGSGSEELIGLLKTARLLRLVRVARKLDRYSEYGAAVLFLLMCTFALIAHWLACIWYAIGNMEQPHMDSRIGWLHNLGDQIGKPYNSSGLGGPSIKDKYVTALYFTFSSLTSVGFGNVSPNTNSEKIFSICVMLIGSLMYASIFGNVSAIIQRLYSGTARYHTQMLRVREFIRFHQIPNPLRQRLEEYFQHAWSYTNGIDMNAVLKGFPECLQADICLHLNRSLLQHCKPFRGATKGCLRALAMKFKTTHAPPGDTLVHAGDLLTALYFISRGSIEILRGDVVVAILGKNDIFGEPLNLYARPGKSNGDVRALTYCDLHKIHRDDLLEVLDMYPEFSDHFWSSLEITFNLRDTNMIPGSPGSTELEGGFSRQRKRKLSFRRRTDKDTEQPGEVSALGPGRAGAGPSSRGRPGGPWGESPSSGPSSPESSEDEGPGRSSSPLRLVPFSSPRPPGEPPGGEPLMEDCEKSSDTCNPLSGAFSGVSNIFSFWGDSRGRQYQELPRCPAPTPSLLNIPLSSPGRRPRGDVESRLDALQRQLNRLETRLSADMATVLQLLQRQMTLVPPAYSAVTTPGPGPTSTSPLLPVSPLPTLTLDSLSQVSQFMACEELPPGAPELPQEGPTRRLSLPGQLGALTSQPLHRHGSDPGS

Cyp450 1A2 = biological target: T1, Cyp450 1A2 (Homo sapiens, UniProt P05177); assay: Cyp450 inhibition, 1A2; type: in vitro ADME; settings: isoform 1A2
T1 sequence (P05177 1-516): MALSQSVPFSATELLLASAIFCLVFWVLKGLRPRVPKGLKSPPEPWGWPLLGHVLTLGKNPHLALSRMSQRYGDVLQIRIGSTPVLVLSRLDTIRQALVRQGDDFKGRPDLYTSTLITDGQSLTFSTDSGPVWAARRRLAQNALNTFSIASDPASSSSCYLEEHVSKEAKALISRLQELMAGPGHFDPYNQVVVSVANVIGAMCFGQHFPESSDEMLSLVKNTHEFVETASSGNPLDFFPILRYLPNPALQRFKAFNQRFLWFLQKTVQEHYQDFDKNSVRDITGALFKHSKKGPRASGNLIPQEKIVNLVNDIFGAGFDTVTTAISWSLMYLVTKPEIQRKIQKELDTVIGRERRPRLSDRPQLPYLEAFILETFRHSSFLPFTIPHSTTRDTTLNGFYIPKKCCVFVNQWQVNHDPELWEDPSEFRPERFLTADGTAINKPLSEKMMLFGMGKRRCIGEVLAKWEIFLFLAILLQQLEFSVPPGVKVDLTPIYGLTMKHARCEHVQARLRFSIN

RARγ = biological target: T2, RARγ (Mus musculus, UniProt P18911); assay: RAR gamma transactivation assay (gal4-RAR LBD fusion, luciferase reporter, COS-7 cells); type: cell-based; settings: mouse RAR ligand binding domain; Tables 1 and 4; read-out: γ EC50
T2 construct: expressed in transfected cells; host or cells: COS-7
T2 sequence (P18911 185-419 limits assumed): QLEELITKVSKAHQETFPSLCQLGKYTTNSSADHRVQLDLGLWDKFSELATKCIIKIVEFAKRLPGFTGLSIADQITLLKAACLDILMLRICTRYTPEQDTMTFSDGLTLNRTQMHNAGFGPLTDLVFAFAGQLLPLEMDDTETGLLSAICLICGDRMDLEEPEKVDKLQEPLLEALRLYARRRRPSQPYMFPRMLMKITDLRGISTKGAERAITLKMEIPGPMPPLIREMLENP
Method: (§2) Compounds were tested in transactivation assays at the RAR α, β and γ receptors.
(§3) Transactivation assays for RAR alpha, beta and gamma receptors:
(§4) Transcriptional transactivation assays have been performed with gal4 fusion receptor constructs, created using each of the mouse RAR ligand-binding domains, co-transfected with the pFR-luc (Stratagene) reporter construct in COS-7 cells.
(§5) Briefly, on day one, 96 well plates were seeded with 8000 cells per well then left to recover overnight. On day two, the cells were co-transfected with 100ng of reporter plasmid and 10ng of the appropriate receptor plasmid per well using lipofectamine (Invitrogen). On day three, the lipofectamine containing media was replaced by a DMEM without phenol red, followed by the addition of novel compounds dissolved in 1µl of DMSO to each well’s 100µl total volume. Finally, on day four, the cells were lysed and their luciferase substrate was provided by the BrightGlo reagent (Promega), the plates were then read on the MicroBeta TriLux (Perkin Elmer).
(§6) Data for test compounds are quoted as EC50 values. Where replicate data has been generated the data are quoted as the mean EC50 from the separate experiments.

Pharmacokinetics in rat = type: in vivo; set-up: Volume distribution ss: unit not given here
three bacterial strains = type: cell-based
RARβ = biological target: T3, RARβ (Mus musculus, UniProt P22605); assay: RAR beta transactivation assay (gal4-RAR LBD fusion, luciferase reporter, COS-7 cells); type: cell-based
T3 construct: expressed in transfected cells; host or cells: COS-7
T3 sequence (P22605 210-444 limits assumed): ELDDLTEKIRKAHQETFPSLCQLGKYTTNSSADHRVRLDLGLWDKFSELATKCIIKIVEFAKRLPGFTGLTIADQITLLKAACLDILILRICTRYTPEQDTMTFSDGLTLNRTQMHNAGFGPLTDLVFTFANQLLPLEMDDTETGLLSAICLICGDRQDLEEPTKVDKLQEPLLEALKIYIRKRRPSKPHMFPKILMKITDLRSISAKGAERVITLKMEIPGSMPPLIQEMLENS
Method: as §2, §3, §4, §5, §6

Cyp450 2C9 = Cyp450 2C9 (Homo sapiens, UniProt P11712); assay: Cyp450 inhibition, 2C9; type: in vitro ADME; settings: isoform 2C9
Sequence of Cyp450 2C9 (P11712 whole entry, the tested form may be a part, canonical isoform): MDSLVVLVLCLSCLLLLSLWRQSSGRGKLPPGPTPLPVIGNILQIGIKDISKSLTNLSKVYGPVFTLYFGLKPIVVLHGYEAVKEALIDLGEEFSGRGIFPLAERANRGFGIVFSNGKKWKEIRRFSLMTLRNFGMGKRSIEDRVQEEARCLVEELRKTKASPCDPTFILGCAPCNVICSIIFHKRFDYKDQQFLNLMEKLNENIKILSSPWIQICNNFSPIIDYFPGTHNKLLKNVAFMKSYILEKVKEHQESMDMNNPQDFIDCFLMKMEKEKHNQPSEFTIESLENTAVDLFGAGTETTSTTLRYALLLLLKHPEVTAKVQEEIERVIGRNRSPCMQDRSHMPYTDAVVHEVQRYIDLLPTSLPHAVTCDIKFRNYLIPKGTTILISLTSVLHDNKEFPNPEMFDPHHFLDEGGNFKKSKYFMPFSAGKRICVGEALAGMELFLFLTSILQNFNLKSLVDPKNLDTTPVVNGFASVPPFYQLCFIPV

RARα = biological target: T4, RARα (Mus musculus, UniProt P11416); assay: RAR alpha transactivation assay (gal4-RAR LBD fusion, luciferase reporter, COS-7 cells); type: cell-based; settings: mouse RAR ligand binding domain; usually three experiments; read-out: α EC50
T4 construct: expressed in transfected cells; host or cells: COS-7
T4 sequence (P11416 183-417 limits assumed): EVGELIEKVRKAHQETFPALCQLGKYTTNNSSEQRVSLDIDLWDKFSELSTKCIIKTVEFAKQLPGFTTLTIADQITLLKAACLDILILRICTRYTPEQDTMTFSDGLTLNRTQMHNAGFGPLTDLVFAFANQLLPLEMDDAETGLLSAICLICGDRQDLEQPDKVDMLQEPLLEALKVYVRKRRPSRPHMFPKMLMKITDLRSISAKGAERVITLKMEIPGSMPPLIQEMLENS
Method: as §2, §3, §4, §5, §6

[2] = Mouse plasma protein binding; type: in vitro ADME
Solubility = type: physicochemical; settings: pH 7.4, as the amorphous sodium salt
HEPG2 cell = HEPG2 cell toxicity assay; type: cell-based; settings: highest concentration tested 50 μM
[3] = Human plasma protein binding; type: in vitro ADME
Pharmacokinetics in dog = type: in vivo; set-up: Volume distribution ss: unit not given here
Cyp450 2D6 = Cyp450 2D6 (Homo sapiens, UniProt P10635); assay: Cyp450 inhibition, 2D6; type: in vitro ADME; settings: isoform 2D6
Sequence of Cyp450 2D6 (P10635 whole entry, canonical isoform): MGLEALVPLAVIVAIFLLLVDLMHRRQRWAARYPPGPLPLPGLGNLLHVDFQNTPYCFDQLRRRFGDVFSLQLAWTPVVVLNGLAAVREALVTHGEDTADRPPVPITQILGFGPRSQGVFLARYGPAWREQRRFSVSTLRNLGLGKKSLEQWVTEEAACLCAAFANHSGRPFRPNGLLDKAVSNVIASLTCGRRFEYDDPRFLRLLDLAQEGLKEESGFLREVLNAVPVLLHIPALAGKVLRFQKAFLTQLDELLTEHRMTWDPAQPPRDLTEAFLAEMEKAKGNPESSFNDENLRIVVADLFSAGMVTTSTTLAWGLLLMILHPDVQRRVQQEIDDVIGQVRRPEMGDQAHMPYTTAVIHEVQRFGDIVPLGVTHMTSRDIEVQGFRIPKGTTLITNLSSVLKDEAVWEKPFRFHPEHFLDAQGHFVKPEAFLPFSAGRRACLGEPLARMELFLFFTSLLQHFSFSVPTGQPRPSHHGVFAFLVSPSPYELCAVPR

## Cc1ccc(C)c2oc(-c3nc(-c4ccc(C(=O)O)cc4)no3)cc12 [Compound 10, 4-(5-(4,7-dimethylbenzofuran-2-yl)-1,2,4-oxadiazol-3-yl)benzoic acid]
P-gp (MDR1)
  efflux ratio: 0.8
MDR1-MDCK cell line
  permeability (in words): good permeability
MDR1-MDCK cell line; MDR1-MDCK cell line, bi-directional
  MDCK asymmetry ratio (efflux ratio): close to unity
[1]
  Papp: 28 ×10⁻⁶ cm/s
HERG channels
  HERG channel binding inhibition: no inhibition
Cyp450 1A2
  pIC50: < 4.60
RARγ
  pEC50: 7.96
Pharmacokinetics in rat; blood, rat, iv dose 0.5 mg/kg
  clearance: 3.7 mL/min/kg
Pharmacokinetics in rat; in vivo, rat, oral doses of 1, 3 and 10 mg/kg
  Tmax: 1.7 h
Pharmacokinetics in rat; rat
  t1/2: 1.4 h
Pharmacokinetics in rat; rat, iv dose 0.5 mg/kg
  Volume distribution ss: 0.41
Pharmacokinetics in rat; rat, mean of 1, 3 and 10 mg/kg oral in comparison to iv 0.5 mg/kg
  Fraction absorbed: 80 ^b %
Pharmacokinetics in rat; rats
  oral bioavailability: > 40%
Pharmacokinetics in rat; rats, 8 h after dosing orally
  CNS penetration: brain tissue compared to plasma: nearly equivalent amounts detected in brain tissue when compared to plasma
Three bacterial strains
  Ames test result: inactive
RARβ; EC50 ratio of α to β, mouse, Tables 1 and 4
  Fold selectivity for β over α: 13
RARβ; EC50 ratio of γ to β, mouse
  Fold selectivity for β over γ: 5.6
RARβ; maximum upper asymptote within 20% of that found for ATRA
  agonist behaviour (full/partial) relative to ATRA: full agonist
RARβ; mouse RAR ligand binding domain, usually three experiments, read-out: β EC50
  pEC50: 8.72
Cyp450 2C9
  pIC50: < 4.60
RARα
  pEC50: 7.59
[2]
  fraction unbound: 0.05
Solubility
  solubility: > 100 µM
HEPG2 cell
  HEPG2 cell toxicity alerts: completely devoid of alerts
[3]
  fraction unbound: 0.02
Pharmacokinetics in dog
  t1/2: 2.5 h
Pharmacokinetics in dog; blood, iv dose 0.5 mg/kg
  clearance: 1.1 mL/min/kg
Pharmacokinetics in dog; in vivo, po, 3 mg/kg, dogs
  bioavailability: > 40%
Pharmacokinetics in dog; iv dose 0.5 mg/kg
  Volume distribution ss: 0.23
Pharmacokinetics in dog; oral 3 mg/kg vs iv 0.5 mg/kg
  Fraction absorbed: 45%
Pharmacokinetics in dog; oral dose 3 mg/kg
  Tmax: 1.0 h
Cyp450 2D6
  pIC50: < 4.60
